# Test results: patent US20080200334A1, “Method For Enhancing The Effectiveness Of Ethaboxam” (BASF Aktiengesellschaft, priority 2004, published 2008)
# Read-outs that look alike come from different tables or passages of the source.
# How the values were obtained:
# Pyricularia oryzae = type: cell-based
# Plasmopara viticola [1] = experiment: Use Example 1: peronospora of grapevines, greenhouse, 7 days of protective application; type: in vivo; settings: grapevine leaves sprayed 7 days before inoculation
# Method: The active compounds were prepared jointly or separately as a stock solution with 25 mg of active compound which was made up to 10 ml using a mixture of acetone and/or DMSO and the emulsifier Uniperol® EL (wetting agent having emulsifying and dispersing action based on ethoxylated alkylphenols) in a volume ratio of solvent/emulsifier of 99 to 1. The mixture was then made up with water to 100 ml. This stock solution was diluted with the solvent/emulsifier/water mixture described to the concentration of active compounds stated below.
# The active compounds pyraclostrobin, famoxadone, fluazinam and zoxamide were used as commercially available formulations.
# The visually determined percentages of infected leaf areas were converted into efficacies in % of the untreated control:
# The efficacy (E) is calculated as follows using Abbot's formula:
# An efficacy of 0 means that the infection level of the treated plants corresponds to that of the untreated control plants; an efficacy of 100 means that the treated plants were not infected.
# The expected efficacies of mixtures of active compounds were determined using Colby's formula (Colby, S. R. “Calculating synergistic and antagonistic responses of herbicide combinations”, Weeds, 15, 20-22, 1967) and compared with the observed efficacies.
# E=x+y−x·y/100 • E expected efficacy, expressed in % of the untreated control, when using the mixture of the active compounds A and B at the concentrations a and b • x efficacy, expressed in % of the untreated control, when using the active compound A at the concentration a • y efficacy, expressed in % of the untreated control, when using the active compound B at the concentration b
# Effectiveness Against Peronospora of Grapevines Caused by Plasmopara viticola at 7 days of Protective Application
# Leaves of potted vines were sprayed to runoff point with an aqueous suspension having the concentration of active compound given below. To be able to assess the persistency of the substances, the plants were, after the spray coating had dried on, placed in a greenhouse for 7 days. Only then were the leaves inoculated with an aqueous zoospore suspension of Plasmopara viticola. The grapevines were then initially placed in a water-vapor-saturated chamber at 24° C. for 48 hours and then in a greenhouse at temperatures between 20 and 30° C. for 5 days. After this period of time the plants were, to promote sporangiophore eruption, again placed in a humid chamber for 16 hours. The extent of the development of the infection on the undersides of the leaves was then determined visually.
# Phytophthora infestans = type: in vivo; settings: tomato leaves sprayed 3 days before inoculation, rated after 6 days
# Botrytis cinerea = experiment: Use Example 4: gray mold, microtiter test; type: cell-based; settings: day 7 after inoculation, 405 nm
# Septoria tritici = experiment: Use Example 6: Septoria speckled leaf blotch, microtiter test; type: cell-based; settings: day 7 after inoculation, 405 nm
# Plasmopara viticola [2] = type: in vivo
compound,measurement,setting,value
"CC1(c2ccc(Oc3ccccc3)cc2)OC(=O)N(Nc2ccccc2)C1=O (racemic) [famoxadone II-11, (RS)-3-anilino-5-methyl-5-(4-phenoxyphenyl)-1,3-oxazolidine-2,4-dione]",Observed effect (%),Pyricularia oryzae; 0.5 ppm,64%
"CCNC(=O)NC(=O)/C(C#N)=N/OC [cymoxanil II-3, cymoxanil]",Observed effect (%),Plasmopara viticola [1]; 4 ppm,0%
"COc1ccc(C(=CC(=O)N2CCOCC2)c2ccc(Cl)cc2)cc1OC [dimethomorph II-2, 3-(4-chlorophenyl)-3-(3,4-dimethoxyphenyl)-1-morpholin-4-ylpropenone]",Observed effect (%),Phytophthora infestans; 4 ppm,0%
same,Observed effect (%),Phytophthora infestans; 16 ppm,22%
same,Observed effect (%),Pyricularia oryzae; 4 ppm,6%
same,Observed effect (%),Botrytis cinerea; 63 ppm,9%
same,Observed effect (%),Plasmopara viticola [1]; 4 ppm,0%
"N#Cc1sc2c(=O)c3ccccc3c(=O)c=2sc1C#N [dithianon II-15, 5,10-dioxo-5,10-dihydronaphtho[2,3-b][1,4]dithiin-2,3-dicarbonitrile]",Observed effect (%),Septoria tritici; 0.125 ppm,35%
"CCNc1nc(CC)c(C(=O)NC(C#N)c2cccs2)s1 (centres unmarked) [ethaboxam I, N-(cyano-2-thienylmethyl)-4-ethyl-2-(ethylamino)-5-thiazolecarboxamide]",Observed effect (%),Plasmopara viticola [2]; 1 ppm,61%
same,Observed effect (%),Phytophthora infestans; 16 ppm,33%
same,Observed effect (%),Pyricularia oryzae; 0.125 ppm,0%
same,Observed effect (%),Pyricularia oryzae; 0.25 ppm,0%
same,Observed effect (%),Pyricularia oryzae; 8 ppm,18%
same,Observed effect (%),Pyricularia oryzae; 16 ppm,41%
same,Observed effect (%),Pyricularia oryzae; 63 ppm,56%
same,Observed effect (%),Septoria tritici; 0.125 ppm,0%
same,Observed effect (%),Septoria tritici; 4 ppm,0%
same,Observed effect (%),Septoria tritici; 16 ppm,0%
same,Observed effect (%),Botrytis cinerea; 1 ppm,0%
same,Observed effect (%),Botrytis cinerea; 2 ppm,0%
same,Observed effect (%),Botrytis cinerea; 4 ppm,0%
same,Observed effect (%),Botrytis cinerea; 32 ppm,0%
same,Observed effect (%),Botrytis cinerea; 63 ppm,11%
same,Observed effect (%),Plasmopara viticola [1]; 1 ppm,0%
same,Observed effect (%),Plasmopara viticola [1]; 4 ppm,22%
same,Observed effect (%),Plasmopara viticola [1]; 16 ppm,44%
"O=[N+]([O-])c1cc(C(F)(F)F)c(Cl)c([N+](=O)[O-])c1Nc1ncc(C(F)(F)F)cc1Cl [fluazinam II-4, 3-chloro-N-[3-chloro-2,6-dinitro-4-(trifluoromethyl)phenyl]-5-(trifluoromethyl)-2-pyridinamine]",Observed effect (%),Plasmopara viticola [1]; 63 ppm,22%
"COc1ccc(C(=CC(=O)N2CCOCC2)c2ccc(F)cc2)cc1OC [flumorph II-8, 3-(4-fluorophenyl)-3-(3,4-dimethoxyphenyl)-1-morpholin-4-ylpropenone]",Observed effect (%),Pyricularia oryzae; 16 ppm,11%
same,Observed effect (%),Botrytis cinerea; 63 ppm,16%
"O=C1c2ccccc2C(=O)N1SC(Cl)(Cl)Cl [folpet II-10, folpet]",Observed effect (%),Pyricularia oryzae; 1 ppm,20%
same,Observed effect (%),Septoria tritici; 4 ppm,54%
same,Observed effect (%),Botrytis cinerea; 1 ppm,38%
"COC(=O)N(OC)c1ccccc1COc1ccn(-c2ccc(Cl)cc2)n1 [pyraclostrobin II-6, methyl N-{2-[1-(4-chlorophenyl)-1H-pyrazol-3-yloxymethyl]phenyl}(N-methoxy)carbamate]",Observed effect (%),Botrytis cinerea; 0.5 ppm,22%
ethyl phosphonate aluminum [fosethyl-Al II-12],Observed effect (%),Pyricularia oryzae,8%
manganese ethylenebis(dithiocarbamate) [maneb II-5],Observed effect (%),Plasmopara viticola [2]; in vivo,0%
manganese ethylenebis(dithiocarbamate) zinc complex [mancozeb II-9],Observed effect (%),Septoria tritici; 1 ppm,29%
same,Observed effect (%),Botrytis cinerea; 4 ppm,30%
zinc ammoniate ethylenebis(dithiocarbamate) [metiram II-14],Observed effect (%),Septoria tritici; 4 ppm,19%
